Experimental data as given in patent US20160281050A1, “METHODS FOR TREATING A CULTURE OF HAEMATOCOCCUS PLUVIALIS FOR CONTAMINATION USING SALT AND HYDROGEN PEROXIDE” (HELIAE DEVELOPMENT LLC, priority 2015, published 2016).
Where two headings read alike, the source gives them in different places.

Columns and labels:
[1] = test system: Haematococcus pluvialis (Strain 2); test: % lysis and culture dry weight in flasks (Example 10);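 note: flask cultures run in duplicate, with duplicate untreated flasks serving as controls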
From the text: Culture samples of Haematococcus pluvialis (Strain 2) were collected on the second day of the culture from open raceway bioreactor #2430 operating in conditions: reactor volume of 170,000 L; Daily PAR not measured; pH of 7.3; and paddlewheel speed of 70. The culture samples were distributed into flasks for culturing, consisting of duplicate untreated controls and duplicate treatments. […] Samples were taken from the flask cultures daily to quantify % lysis and % chytrid infection and cell dry weight was quantified every other day for a duration of 11 days.

[2] = test system: Nitrogen fixing bacteria including Rhizobium, Emticicia, and Sinorhizobium; details: after the hydrogen peroxide treatments in bioreactor #2320 (from 20-40%)
From the text: A series of Haematococcus pluvialis (Strain 1) cultures were compared using bacterial community sequencing (SSU rRNA 16s) to analyze the bacterial community of the cultures during a lysis event, a chytrid infection, and during treatment with hydrogen peroxide to determine if the bacteria community shifts or produces a detectable pattern.

[3] = 0.0140 mL/L 1 time per day, day 0
[4] = 0.0140 mL/L 1 time per day, day 3
[5] = 0.0140 mL/L 1 time per day, day 4
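Throughout, for % Chytrid infection: flask cultures run as treated duplicates beside untreated duplicate controls, with dosing halted by day 5 once lysis topped 10% and recovery afterwards tracked.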
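Throughout, for Chytrid infection: flask cultures run as treated duplicates beside untreated duplicate controls, with dosing halted by day 5 once lysis topped 10% and recovery afterwards tracked.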

From the text for chytrids: Culture samples of Haematococcus pluvialis (Strain 2) were collected on day 5 of the culture from open raceway bioreactor #2420 operating in conditions: reactor volume of 170,000 L; Daily PAR not measured; pH of 7.3; and paddlewheel speed of 70%). Culture samples were distributed into flasks for culturing, consisting of duplicate untreated controls and duplicate treatments. […] Samples were taken from the flask cultures every few days in order to quantify % lysis, % chytrid infection, and cell dry weight for a duration of about 11 days.

For hydrogen peroxide [H2O2], the “% Lysis” value ([1]; 0.0105 mL/L 1 time per day, day 3) was 0.0 ± 0.0%, the “% Lysis” value ([1]; 0.0105 mL/L 1 time per day, day 4) was 1.7 ± 0.0% and the “% Lysis” value ([1]; 0.0105 mL/L 1 time per day, day 5) was 1.7 ± 0.0%. For the same substance, the “% Lysis” value ([1]; 0.0105 mL/L 1 time per day, day 6) was 0.8 ± 2.0%, the “% Lysis” value ([1]; 0.0105 mL/L 1 time per day, day 7) was 0.0 ± 0.0% and the “% Lysis” value ([1]; 0.0105 mL/L 1 time per day, day 8) was 1.7 ± 2.4%. The “% Lysis” value ([1]; 0.0105 mL/L 1 time per day, day 9) was 7.5 ± 8.3%, the “% Lysis” value ([1]; 0.0105 mL/L 1 time per day, day 10) was 0.0 ± 0.0% and the percent lysis ([1]; 0.0105 mL/L, for 11 days) was “under 10%”. The “% Lysis” value ([1]; 0.0140 mL/L 1 time per day for 3 d then every other day, day 0) was 0.8 ± 2.0%, the “% Lysis” value ([1]; 0.0140 mL/L 1 time per day for 3 d then every other day, day 3) was 4.2 ± 1.2% and the “% Lysis” value ([1]; 0.0140 mL/L 1 time per day for 3 d then every other day, day 4) was 10.0 ± 8.7%. For the same substance, the “% Lysis” value ([1]; 0.0140 mL/L 1 time per day for 3 d then every other day, day 5) was 15.8 ± 5.9%, the “% Lysis” value ([1]; 0.0140 mL/L 1 time per day for 3 d then every other day, day 6) was 6.7 ± 0.0% and the “% Lysis” value ([1]; 0.0140 mL/L 1 time per day for 3 d then every other day, day 7) was 13.3 ± 4.7%. For the same substance, the “% Lysis” value ([1]; 0.0140 mL/L 1 time per day for 3 d then every other day, day 8) was 13.3 ± 2.4%, the “% Lysis” value ([1]; 0.0140 mL/L 1 time per day for 3 d then every other day, day 9) was 5.0 ± 2.4% and the “% Lysis” value ([1]; 0.0140 mL/L 1 time per day for 3 d then every other day, day 10) was 15.8 ± 12.9%. For the same substance, the “% Lysis” value [1, 3] was 0.8 ± 2.0%, the “% Lysis” value [1, 4] was 4.2 ± 1.2% and the “% Lysis” value [1, 5] was 10.0 ± 8.7%. The “% Lysis” value ([1]; 0.0140 mL/L 1 time per day, day 5) was 10.0 ± 2.4%, the “% Lysis” value ([1]; 0.0140 mL/L 1 time per day, day 6) was 9.2 ± 3.5% and the “% Lysis” value ([1]; 0.0140 mL/L 1 time per day, day 7) was 20.0 ± 9.4%. The “% Lysis” value ([1]; 0.0140 mL/L 1 time per day, day 8) was 6.7 ± 7.0%, the “% Lysis” value ([1]; 0.0140 mL/L 1 time per day, day 9) was 21.7 ± 7.1% and the “% Lysis” value ([1]; 0.0140 mL/L 1 time per day, day 10) was 9.2 ± 3.5%. For the same substance, the percent lysis reached ([1]; 0.0140 mL/L, by day 7) was 20%, the “% Lysis” value ([1]; 0.0175 mL/L 1 time per day for 2 d then every other, day 0) was 0.8 ± 2.0% and the “% Lysis” value ([1]; 0.0175 mL/L 1 time per day for 2 d then every other, day 3) was 31.7 ± 11.8%. The “% Lysis” value ([1]; 0.0175 mL/L 1 time per day for 2 d then every other, day 4) was 22.2 ± 8.5%, the “% Lysis” value ([1]; 0.0175 mL/L 1 time per day for 2 d then every other, day 5) was 19.2 ± 17.6% and the “% Lysis” value ([1]; 0.0175 mL/L 1 time per day for 2 d then every other, day 6) was 25 ± 0.0%. For the same substance, the percent lysis reached ([1]; 0.0175 mL/L, by day 3 after only being dosed twice) was 30%, the “% Chytrid infection” value (chytrids; 0.0105 mL/L 3 times per day (discontinued day 5), day 6) was 2.5 ± 1.2% and the “% Chytrid infection” value (chytrids; 0.0105 mL/L 3 times per day (discontinued day 5), day 9) was 7.5 ± 3.5%. For the same substance, the “% Chytrid infection” value (chytrids; 0.0105 mL/L 3 times per day (discontinued day 5), day 11) was 100.0 ± 0.0%, the “% Chytrid infection” value (chytrids; 0.0105 mL/L 3 times per day, day 0) was 0.0 ± 0.0% and the “% Chytrid infection” value (chytrids; 0.0105 mL/L 3 times per day, day 3) was 0.8 ± 1.2%. For the same substance, the “% Chytrid infection” value (chytrids; 0.0105 mL/L 3 times per day, day 4) was 2.5 ± 3.5%, the “% Chytrid infection” value (chytrids; 0.0105 mL/L 3 times per day, day 5) was 1.7 ± 0.0% and the “% Chytrid infection” value (chytrids; 0.0140 mL/L 1 time per day (discontinued day 5), day 6) was 2.5 ± 1.2%. The “% Chytrid infection” value (chytrids; 0.0140 mL/L 1 time per day (discontinued day 5), day 9) was 0.0 ± 0.0%, the “% Chytrid infection” value (chytrids; 0.0140 mL/L 1 time per day (discontinued day 5), day 11) was 35.8 ± 29.5% and the “% Chytrid infection” value (chytrids; [3]) was 0.0 ± 0.0%. For the same substance, the “% Chytrid infection” value (chytrids; [4]) was 0.0 ± 0.0%, the “% Chytrid infection” value (chytrids; [5]) was 0.0 ± 0.0% and the “% Chytrid infection” value (chytrids; 0.0140 mL/L 2 times per day (discontinued day 5), day 6) was 5.8 ± 3.5%. The “% Chytrid infection” value (chytrids; 0.0140 mL/L 2 times per day (discontinued day 5), day 9) was 43.3 ± 4.7%, the “% Chytrid infection” value (chytrids; 0.0140 mL/L 2 times per day (discontinued day 5), day 11) was 97.5 ± 3.5% and the “% Chytrid infection” value (chytrids; 0.0140 mL/L 2 times per day, day 0) was 0.0 ± 0.0%. The “% Chytrid infection” value (chytrids; 0.0140 mL/L 2 times per day, day 3) was 2.5 ± 1.2%, the “% Chytrid infection” value (chytrids; 0.0140 mL/L 2 times per day, day 4) was 2.5 ± 3.5% and the “% Chytrid infection” value (chytrids; 0.0140 mL/L 2 times per day, day 5) was 5.0 ± 4.7%. The “% Chytrid infection” value (chytrids; 0.0140 mL/L 3 times per day (discontinued day 5), day 6) was 0.0 ± 0.0%, the “% Chytrid infection” value (chytrids; 0.0140 mL/L 3 times per day (discontinued day 5), day 9) was 0.0 ± 0.0% and the “% Chytrid infection” value (chytrids; 0.0140 mL/L 3 times per day (discontinued day 5), day 11) was 11.7 ± 16.5%. For the same substance, the “% Chytrid infection” value (chytrids; 0.0140 mL/L 3 times per day, day 0) was 0.0 ± 0.0%, the “% Chytrid infection” value (chytrids; 0.0140 mL/L 3 times per day, day 3) was 3.3 ± 4.7% and the “% Chytrid infection” value (chytrids; 0.0140 mL/L 3 times per day, day 4) was 0.0 ± 0.0%. For the same substance, the “% Chytrid infection” value (chytrids; 0.0140 mL/L 3 times per day, day 5) was 0.0 ± 0.0%, the “% Chytrid infection” value (chytrids; 0.0175 mL/L 1 time per day (discontinued day 5), day 6) was 0.0 ± 0.0% and the “% Chytrid infection” value (chytrids; 0.0175 mL/L 1 time per day (discontinued day 5), day 9) was 0.0 ± 0.0%. The “% Chytrid infection” value (chytrids; 0.0175 mL/L 1 time per day (discontinued day 5), day 11) was 34.2 ± 27.1%, the “% Chytrid infection” value (chytrids; 0.0175 mL/L 1 time per day, day 0) was 0.0 ± 0.0% and the “% Chytrid infection” value (chytrids; 0.0175 mL/L 1 time per day, day 3) was 0.8 ± 1.2%. For the same substance, the “% Chytrid infection” value (chytrids; 0.0175 mL/L 1 time per day, day 4) was 1.7 ± 0.0%, the “% Chytrid infection” value (chytrids; 0.0175 mL/L 1 time per day, day 5) was 1.7 ± 0.0% and the chytrid infection (chytrids; all treated flasks, until 4-6 days after treatment ended) was “less than 10%”. For the same substance, the “relative amount of nitrogen fixing bacteria in the dominant bacterial community” value [2] was “less than 10%”.
